Reference: patent US7932213B2, “Small molecule printing” (President and Fellows of Harvard College, priority 1999, dated 2011)

How the values were obtained:
calmodulin = calmodulin (Homo sapiens, UniProt P0DP23); assay: Surface plasmon resonance (BIAcore) binding to immobilized calmodulin; details: SPR, steady state affinity analysis; resynthesized, purified compound; PBST containing 4% DMF
Description: Cy5 detection was chosen to avoid conflict with compound autofluorescence in the Cy3 channel. Positive hits from the microarray were retested for their ability to bind to the immobilized protein using surface plasmon resonance (SPR) spectroscopy (BIAcore). This process enables a rapid initial prioritization of positives prior to resynthesis, The initial secondary SPR screening was performed using compound (2 μL of a 1 mM DMF stock) directly from the original stock solutions used for microarray production. […] For this set, compound 5, 6, and 7 were resynthesized, purified, and their KDs with calmodulin determined by SPR using steady state affinity analysis.
Tetracycle 7: ^1H NMR (500 MHz, CDCl3) δ 6.95 (d, J=8.5 Hz, 2H), 6.87 (m, 4H), 6.71 (d, J=8.0 Hz, 2H), 6.55 (q, J=1.5 Hz, 1H), 6.04 (m, 1H), 4.93 (s, 1H), 4.68 (s, 1H), 3.84 (t, J=5.0 Hz, 4H), 3.34 (dd, J=17.0, 2.5 Hz, 1H), 3.28 (m, 2H), 3.16 (t, J=5.0 Hz, 4H), 3.02 (m, 1H), 2.94 (dd, J=15.0, 7.0 Hz, 1H), 2.54 (dd, J=17.5, 8.5 Hz, 1H), 2.36 (ddd J=15.5, 6.5, 3.5 Hz, 1H), 2.05 (d, J=1.5 Hz, 3H); ^13C NMR (125 MHz, CDCl3) δ 186.4, 186.1, 178.8, 177.1, 154.4, 151.2, 146.0, 143.4, 140.8, 139.5, 132.6, 132.5, 128.2, 127.1, 123.1, 122.7, 115.6, 115.5, 66.7, 48.7, 43.9, 42.6, 39.1, 32.4, 24.5, 24.1, 16.1; FT-IR (thin film) 3411, 2961, 2907, 2852, 1699, 1690, 1649, 1611, 1513, 1441, 1381, 1261, 1234, 1173, 1113, 922, 818, 730 cm^−1; HRMS (TOF ES) calcd for C33H31N2O6, 551.2182 m/z (M+H)^+; observed 551.2186 (0.8 ppm error). BIAcore Experiments Immobilization. In all experiments, calmodulin (CaM) was immobilized on a carboxymethylated dextran-coated sensor chip (CM5, Biacore AB, Uppsala, Sweden) at 25° C. For protein immobilization, ‘specific flow rate’ was selected and the protein of interest was immobilized in flow cells 2 and 4. On Biacore 3000, the sensor chip was activated (7 min in flow cells 2 and 4) by addition of 0.2 M N-ethyl-N'-(3-dimethylaminopropyl) carbodiimide hydrochloride (EDC) and 0.05 M N-hydroxysuccinimide (NHS) at 20 μL/min. […]

[1] = Precipitation of sample in SPR binding buffer (4% DMF/PBST); type: physicochemical; details: at 125 μM
Description: After the prioritization step, compounds 5, 6 and 7 were resynthesized, purified and subjected to KD determination. Samples were injected over a range of concentrations (e.g. 0.1-125 μM). The compound was prepared as a 10 mM stock solution in DMF. Serial dilutions of this stock were made and then added to the heated PBST (˜70° C., 1 min). In this analysis, a 200 μL final volume was prepared by addition of 8 μL of small molecule DMF solution into 192 μL of a heated PBST. The final concentration ranged between 0.015 μM and 125 μM. 5 and 6 precipitated at 125 μM in 4% DMF/PBST. Samples were injected in the alternation with blanks. “Flow cell 2 with 1 as a reference” was selected and each sample was analyzed in triplicate. For each experiment, a calibration for bulk differences between flow cells due to the high refractive index of DMF was performed by injecting blank samples containing a range of DMF concentrations (1, 2, 3, 3.5, 4, 4.5, 5%) in PBST under conditions otherwise identical to those used for samples of compounds 5, 6 and 7.

| Kd (calmodulin) | precipitation in 4% DMF/PBST [1] | SMILES |
| --- | --- | --- |
| 20700 ± 1000 nM | – | CC1=CC(=O)C2=C(C[C@@H]3C(=CC[C@@H]4C(=O)N(c5ccc(N6CCOCC6)cc5)C(=O)[C@@H]43)[C@@H]2c2ccc(O)cc2)C1=O [Compound 7] |
| 121 ± 30 nM | precipitated | CN(C)c1ccc(/N=N/c2ccc(N3C(=O)[C@H]4[C@H](CC=C5[C@H]4C[C@H]4C(=O)N(c6ccc(F)c(Cl)c6)C(=O)[C@@]4(C)[C@H]5c4cc(Cl)ccc4O)C3=O)cc2)cc1 [Compound 5] |
| 1060 ± 90 nM | precipitated | Cc1c(-c2cc(N3C(=O)[C@@H]4C[C@@H]5C(=CC[C@@H]6C(=O)N(c7ccc(/N=N/c8ccc(N(C)C)cc8)cc7)C(=O)[C@@H]65)[C@H](c5cc(Cl)ccc5O)[C@]4(C)C3=O)n(C)n2)sc2ccc(Cl)cc12 [Compound 6] |
